{"source": "patent US11214556B1", "about": "“Method of treating colorectal cancer” (King Abdulaziz University, priority 2019, dated 2022)", "key": {"CACO-2 cells": {"tested_on": "CACO-2 cells", "test": "SRB cytotoxicity assay, CACO-2", "format": "cell-based, human", "conditions": "72 h exposure, ± SEM", "procedure,_shortened": "(§1)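 Cells seeded at 5000/well, grown 24 h, then exposed 72 h at 37 °C to 0.01–100 μM compound or 1% DMSO in RPMI1640 with 10% FBS. TCA-fixed, SRB-stained, OD read at 510 nm; viability expressed relative to untreated control cells.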"}, "HT-29 cells": {"tested_on": "HT-29 cells", "test": "SRB cytotoxicity assay, HT-29", "format": "cell-based, human", "conditions": "monolayer, 72 h exposure, ± SEM", "procedure,_shortened": "as §1"}, "[1]": {"tested_on": "baby hamster kidney (BHK) cell lines", "test": "Cytotoxicity against normal baby hamster kidney cells", "format": "cell-based", "conditions": "72 h", "method": "FIG. 3B is a graph illustrating the cytotoxic effect of 4112 against human colon adenocarcinoma cancer cells (HCT-116, Caco-2 and HT-29) vs. normal baby hamster kidney cells (BHK). All cells were exposed to different concentrations of 4112 for 72 h. The cell viability concentration curves were plotted, and the IC50 were determined. *denotes significance at P<0.001;\nBased on the favorable pharmacologic and physicochemical properties of MOS-1512, it was selected as a new lead for the second subset of compounds (MOS-1812 to MOS-5112). The compounds in this series contained variable groups at R^1 and R^2 that were all tested against the three cancer cell lines (HCT-116, Caco-2 and HT-29). […]\nThe sulforhodamine B (SRB) assays were performed according to Skehan, P.; Storeng, R.; Scudiero, D.; Monks, A.; McMahon, J.; Vistica, D.; Warren, J. T.; Bokesch, H.; Kenney, S.; Boyd, M. R., New colorimetric cytotoxicity assay for anticancer-drug screening. […] Briefly, exponentially growing cells were trypsinized, counted and seeded at the appropriate densities (5000 cells/100 μL/well) into 96-well microtiter plates. […] The protein-bound dye was dissolved in 10 mM Tris base solution for (optical density) OD determination at 510 nm using a SpectraMax plus Microplate Reader (Molecular Devices, CA). […]"}, "[2]": {"tested_on": "HT-29 colon cancer cell spheroids (cancer stem cells)", "test": "Primary (1°) colonosphere formation assay", "format": "cell-based, human", "method": "Compound 4112 and another potent compound 3712 were also evaluated for their ability to inhibit cancer stem cell proliferation using a primary (1°) colonosphere formation assay. In this assay, HT-29 colon cancer cells were grown in low adhesion plates to form spheres as previously described. See Patel, N. J.; Karuturi, R.; Al-Horani, R. A.; Baranwal, S.; Patel, J.; Desai, U. R.; Patel, B. B., Synthetic, non-saccharide, glycosaminoglycan mimetics selectively target colon cancer stem cells. ACS Chem Biol 2014, 9 (8), 1826-33, incorporated herein by reference in its entirety. Wells treated with the inventive compounds were compared to vehicle treated cells for primary sphere growth inhibition after 5 days of incubation. […] Of note, monolayer growth conditions are ideally suited for examining cellular proliferation, whereas spheroid growth conditions examine cancer stem cell growth and self-renewal properties.\nFor primary sphere formation, cells were plated in nontreated, low adhesion, 96 wells plate at the concentration of 100 cells/100 μL/well in stem cell media (SCM) that consisted of DMEM:F12:AA (Gibco), supplemented with 1×B27 (Gibco), 20 ng/mL epidermal growth factor, and 10 ng/mL fibroblast growth factor (Sigma). After 4 h of incubation, vehicle (control) or 3712 and 4112 at the desired concentrations were added to each well (at least in triplicates for each sample). On day five, numbers of spheres ranging from […] in diameter were counted using phase contrast microscope and percent inhibition was calculated compared to control."}, "HCT-116 cells": {"tested_on": "HCT-116 cells", "test": "Cell cycle analysis by flow cytometry", "format": "cell-based, human", "conditions": "IC50 concentration, 24 h", "excerpt": "The exposure of the cells to 4112 led to a significant increase in the proportion of cells in pre-G1 phase (Up to 9-fold compared to the control). Accumulation of cells in pre-G1 phase, likely as a result of degradation or fragmentation of genetic material indicates a possible role for apoptosis through compound-induced growth inhibition.\nThe cells were collected by trypsinization, washed with phosphate buffered saline (PBS) and fixed in ice-cold absolute alcohol. Thereafter, cells were stained using Cycletest™ Plus DNA Reagent Kit (BD Biosciences, San Jose, Calif.) according to the manufacturer's instructions. Cell cycle distribution was determined using a FACS Calibur flow cytometer (BD Biosciences, San Jose, Calif.)."}}}
{"smiles": "CCCNC(=O)/C(=C/c1c[nH]c2ccccc12)NC(=O)/C=C/c1cccs1", "note": "[Compound 4112, (Z)-3-(1H-indol-3-yl)-N-propyl-2-[(E)-3-(thien-2-yl)acrylamidolacry]amide]", "values": [{"measurement": "IC50", "setting": "CACO-2 cells", "value": "0.89 ± 0.04", "unit": "µM"}, {"measurement": "IC50", "setting": "HT-29 cells", "value": "1.65 ± 0.07", "unit": "µM"}, {"measurement": "IC50", "setting": "[1]", "value": "77.6 ± 6.2", "unit": "µM"}, {"measurement": "IC50", "setting": "[2]; HT-29 spheres, 5 days of incubation", "value": "18.9 ± 1.1", "unit": "µM"}, {"measurement": "inhibition of colon cancer spheroids formation", "setting": "[2]; spheroids >50 μm, 5 days", "value": "dose-dependent inhibition"}, {"measurement": "increase in proportion of cells in pre-G1 phase compared to the control", "setting": "HCT-116 cells", "value": "Up to 9 fold"}]}
